Assays:
[1] = molecular target: T1, RORγ-LBD (Homo sapiens, UniProt P51449); assay: RORγ-Ligand Binding Domain (LBD) TR-FRET Assay; format: biochemical;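 for TR-FRET Assay Max Response: 665/615 nm ratio relative to signal without ursolic acid or compound set at 100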
T1 construct: made in house; host or cells: SF9 cells (baculovirus)
T1 sequence (P51449 269-508 limits assumed): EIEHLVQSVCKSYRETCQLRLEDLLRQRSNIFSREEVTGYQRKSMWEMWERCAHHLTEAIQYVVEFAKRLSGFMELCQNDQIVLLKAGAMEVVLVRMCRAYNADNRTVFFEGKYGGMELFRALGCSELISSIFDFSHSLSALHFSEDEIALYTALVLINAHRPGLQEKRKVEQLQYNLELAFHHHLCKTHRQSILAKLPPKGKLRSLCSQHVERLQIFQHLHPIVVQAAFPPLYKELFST
Summary of the method: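 TR-FRET read-out using a biotin-tagged SRC1 coactivator LXXLL peptide (200 nM final), with the antagonist ursolic acid present at 2 μM final. Receptor is His-tagged LBD expressed in SF9 cells, ~3 nM final in pH 7.0 Tris/KCl/EDTA/DTT/BSA buffer; compounds in 1% DMSO final.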

[2] = molecular target: T2, Gal4-RORγ-LBD (Homo sapiens, UniProt P51449); assay: Gal4-RORγ Luciferase Reporter Assay in HEK-293T Cells; format: cell-based; details: HEK-293 cells
T2 construct: expressed in transfected cells; host or cells: HEK-293 cells (pcDNA3.1neo plasmid)
T2 sequence (P51449 269-508 limits assumed): T1 sequence (P51449 269-508 limits assumed)
Summary of the method: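 Luminescence read-out (One-Glo, 10 min RT) after overnight compound exposure at 37 °C in HEK-293 cells carrying Gal4-RORγ-LBD plus a Gal4-luciferase reporter, in the presence of 2 μM ursolic acid. Max Response is the upper plateau from a 4-parameter logistic fit, normalized to untreated signal = 100.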

[3] = luciferase reporter, with 2 μM ursolic acid

For `CC(C)(O)C(=O)NC[C@H]1CN(S(=O)(=O)c2cncc(C(F)(F)F)c2)c2cc(-c3cc(F)ccc3F)ccc2O1` [Compound 30U, (S)-N-((6-(2,5-difluorophenyl)-4-((5-(trifluoromethyl)pyridin-3-yl)sulfonyl)-3,4-dihydro-2H-benzo[b][1,4]oxazin-2-yl)methyl)-2-hydroxy-2-methylpropanamide], the EC50 [1] was under 500 nM, the “TR-FRET Assay Max Response” value [1] was “*** (The symbol “***” indicates a value in the range of greater than 150 to 200)” and the EC50 [2, 3] was under 500 nM. For the same compound, the “Gal4-RORγ Assay Max Response” value [2, 3] was “** (The symbol “**” indicates a value in the range of greater than 90 to 150)”.

For `C[C@@](O)(C(=O)NC[C@H]1CN(S(=O)(=O)c2cccc(C(F)(F)F)c2)c2cc(-c3cc(F)ccc3F)ccc2O1)C(F)(F)F` [Compound 30V, (R)-N-(((S)-6-(2,5-difluoro-phenyl)-4-((3-(trifluoromethyl)-phenyl)sulfonyl)-3,4-dihydro-2H-benzo[b][1,4]oxazin-2-yl)methyl)-3,3,3-trifluoro-2-hydroxy-2-methylpropanamide], the EC50 [1] was under 500 nM, the “TR-FRET Assay Max Response” value [1] was “**** (The symbol “****” indicates a value greater than 200)” and the EC50 [2, 3] was under 500 nM. For the same compound, the “Gal4-RORγ Assay Max Response” value [2, 3] was “* (The symbol “*” indicates a value in the range of 25 to 90)”.

With `C[C@](O)(C(=O)NC[C@H]1CN(S(=O)(=O)c2cccc(C(F)(F)F)c2)c2cc(-c3cc(F)ccc3F)ccc2O1)C(F)(F)F` [Compound 30W, (S)-N-(((S)-6-(2,5-difluoro-phenyl)-4-((3-(trifluoromethyl)-phenyl)sulfonyl)-3,4-dihydro-2H-benzo[b][1,4]oxazin-2-yl)methyl)-3,3,3-trifluoro-2-hydroxy-2-methylpropanamide] the EC50 [1] was under 500 nM, the “TR-FRET Assay Max Response” value [1] was “**** (The symbol “****” indicates a value greater than 200)” and the EC50 [2, 3] was under 500 nM. For the same compound, the “Gal4-RORγ Assay Max Response” value [2, 3] was “** (The symbol “**” indicates a value in the range of greater than 90 to 150)”.

With `COc1cc(S(=O)(=O)N2C[C@H](CNC(=O)[C@@](C)(O)C(F)(F)F)Oc3ccc(-c4cc(F)ccc4F)cc32)ccc1F` [Compound 30X, (R)-N-(((S)-6-(2,5-difluorophenyl)-4-((4-fluoro-3-methoxyphenyl)sulfonyl)-3,4-dihydro-2H-benzo[b][1,4]oxazin-2-yl)methyl)-3,3,3-trifluoro-2-hydroxy-2-methylpropanamide] the EC50 [1] was under 500 nM, the “TR-FRET Assay Max Response” value [1] was “*** (The symbol “***” indicates a value in the range of greater than 150 to 200)” and the EC50 [2, 3] was under 500 nM. The “Gal4-RORγ Assay Max Response” value [2, 3] was “* (The symbol “*” indicates a value in the range of 25 to 90)”.

`O=C(NC[C@H]1CN(S(=O)(=O)c2cccc(C(F)(F)F)c2)c2cc(-c3cc(F)ccc3F)ccc2O1)C1CC1` [Compound 30Y, (S)-N-((6-(2,5-difluorophenyl)-4-((3-(trifluoromethyl)phenyl)-sulfonyl)-3,4-dihydro-2H-benzo[b][1,4]oxazin-2-yl)-methyl)cyclopropane-carboxamide] was tested, and the EC50 [1] was under 500 nM, the “TR-FRET Assay Max Response” value [1] was “**** (The symbol “****” indicates a value greater than 200)” and the EC50 [2, 3] was under 500 nM. The “Gal4-RORγ Assay Max Response” value [2, 3] was “** (The symbol “**” indicates a value in the range of greater than 90 to 150)”.

With `O=C(NC[C@H]1CN(S(=O)(=O)c2cccc(C(F)(F)F)c2)c2cc(-c3cc(F)ccc3F)ccc2O1)C1COC1` [Compound 30Z, (S)-N-((6-(2,5-difluorophenyl)-4-((3-(trifluoromethyl)phenyl)-sulfonyl)-3,4-dihydro-2H-benzo[b][1,4]oxazin-2-yl)methyl)oxetane-3-carboxamide] the EC50 [1] was under 500 nM, the “TR-FRET Assay Max Response” value [1] was “**** (The symbol “****” indicates a value greater than 200)” and the EC50 [2, 3] was under 500 nM. For the same compound, the “Gal4-RORγ Assay Max Response” value [2, 3] was “* (The symbol “*” indicates a value in the range of 25 to 90)”.

For `CC(C)(C[C@H]1CN(S(=O)(=O)c2cccc(C(F)(F)F)c2)c2cc(-c3cc(F)ccc3F)ccc2O1)C(=O)O` [Compound 31, (S)-3-(6-(2,5-difluorophenyl)-4-((3-(trifluoromethyl)phenyl)sulfonyl)-3,4-dihydro-2H-benzo[b][1,4]oxazin-2-yl)-2,2-dimethylpropanoic Acid], the EC50 [1] was under 500 nM, the “TR-FRET Assay Max Response” value [1] was “**** (The symbol “****” indicates a value greater than 200)” and the EC50 [2, 3] was under 500 nM. For the same compound, the “Gal4-RORγ Assay Max Response” value [2, 3] was “** (The symbol “**” indicates a value in the range of greater than 90 to 150)”.

In the case of `CC(C)(CC[C@H]1CN(S(=O)(=O)c2cccc(C(F)(F)F)c2)c2cc(-c3cc(F)ccc3F)ccc2O1)C(=O)O` [Compound 32A, (S)-4-(6-(2,5-difluorophenyl)-4-((3-(trifluoromethyl)phenyl)-sulfonyl)-3,4-dihydro-2H-benzo[b][1,4]oxazin-2-yl)-2,2-dimethylbutanoic acid], the EC50 [1] is reported as under 500 nM, the “TR-FRET Assay Max Response” value [1] is reported as “**** (The symbol “****” indicates a value greater than 200)” and the EC50 [2, 3] is reported as under 500 nM. The “Gal4-RORγ Assay Max Response” value [2, 3] was “** (The symbol “**” indicates a value in the range of greater than 90 to 150)”.

With `CC(C)(C[C@H]1CN(S(=O)(=O)c2cccc(C(F)(F)F)c2)c2cc(-c3cccc(C(F)(F)F)c3Cl)ccc2O1)C(=O)O` [Compound 32AA, (S)-3-(6-(2-chloro-3-(trifluoromethyl)phenyl)-4-((3-(trifluoromethyl)phenyl)sulfonyl)-3,4-dihydro-2H-benzo[b][1,4]-oxazin-2-yl)-2,2-dimethyl-propanoic acid] the EC50 [1] was under 500 nM, the “TR-FRET Assay Max Response” value [1] was “**** (The symbol “****” indicates a value greater than 200)” and the EC50 ([2]; 2 μM ursolic acid) was under 500 nM. The “Gal4-RORγ Assay Max Response” value ([2]; 2 μM ursolic acid) was “** (The symbol “**” indicates a value in the range of greater than 90 to 150)”.

For `CC(C)(C[C@H]1CN(S(=O)(=O)c2cccc(C(F)(F)F)c2)c2cc(-c3cc(Cl)cc(C(F)(F)F)c3)ccc2O1)C(=O)O` [Compound 32AB, (S)-3-(6-(3-chloro-5-(trifluoromethyl)phenyl)-4-((3-(trifluoromethyl)phenyl)sulfonyl)-3,4-dihydro-2H-benzo[b][1,4]oxazin-2-yl)-2,2-dimethylpropanoic acid], the EC50 [1] was under 500 nM, the “TR-FRET Assay Max Response” value [1] was “*** (The symbol “***” indicates a value in the range of greater than 150 to 200)” and the EC50 ([2]; 2 μM ursolic acid) was under 500 nM. For the same compound, the “Gal4-RORγ Assay Max Response” value ([2]; 2 μM ursolic acid) was “** (The symbol “**” indicates a value in the range of greater than 90 to 150)”.

With `CC(C)(C[C@H]1CN(S(=O)(=O)c2cccc(C(F)(F)F)c2)c2cc(-c3cccc4c3OC(F)(F)O4)ccc2O1)C(=O)O` [Compound 32AC, (S)-3-(6-(2,2-difluorobenzo[d]-[1,3]dioxol-4-yl)-4-((3-(trifluoro-methyl)phenyl)sulfonyl)-3,4-dihydro-2H-benzo[b][1,4]oxazin-2-yl)-2,2-dimethylpropanoic acid] the EC50 [1] was under 500 nM, the “TR-FRET Assay Max Response” value [1] was “*** (The symbol “***” indicates a value in the range of greater than 150 to 200)” and the EC50 ([2]; 2 μM ursolic acid) was under 500 nM. The “Gal4-RORγ Assay Max Response” value ([2]; 2 μM ursolic acid) was “** (The symbol “**” indicates a value in the range of greater than 90 to 150)”.

With `CC(C)(C[C@H]1CN(S(=O)(=O)c2cccc(C(F)(F)F)c2)c2cc(-c3cc(C(F)(F)F)ccc3Cl)ccc2O1)C(=O)O` [Compound 32AD, (S)-3-(6-(2-chloro-5-(trifluoromethyl)phenyl)-4-((3-(trifluoromethyl)phenyl)sulfonyl)-3,4-dihydro-2H-benzo[b][1,4]oxazin-2-yl)-2,2-dimethylpropanoic acid] the EC50 [1] was under 500 nM, the “TR-FRET Assay Max Response” value [1] was “*** (The symbol “***” indicates a value in the range of greater than 150 to 200)” and the EC50 ([2]; 2 μM ursolic acid) was under 500 nM. The “Gal4-RORγ Assay Max Response” value ([2]; 2 μM ursolic acid) was “* (The symbol “*” indicates a value in the range of 25 to 90)”.

With `CC(=O)c1ccc(F)c(-c2ccc3c(c2)N(S(=O)(=O)c2cccc(C(F)(F)F)c2)C[C@H](CC(C)(C)C(=O)O)O3)c1` [Compound 32AE, (S)-3-(6-(5-acetyl-2-fluoro-phenyl)-4-((3-(trifluoromethyl)-phenyl)sulfonyl)-3,4-dihydro-2H-benzo[b][1,4]oxazin-2-yl)-2,2-dimethylpropanoic acid] the EC50 [1] was under 500 nM, the “TR-FRET Assay Max Response” value [1] was “*** (The symbol “***” indicates a value in the range of greater than 150 to 200)” and the EC50 ([2]; 2 μM ursolic acid) was under 500 nM. For the same compound, the “Gal4-RORγ Assay Max Response” value ([2]; 2 μM ursolic acid) was “* (The symbol “*” indicates a value in the range of 25 to 90)”.

In the case of `CC(C)(C[C@H]1CN(S(=O)(=O)c2cccc(C(F)(F)F)c2)c2cc(-c3ccccc3C#N)ccc2O1)C(=O)O` [Compound 32AF, (S)-3-(6-(2-cyanophenyl)-4-((3-(trifluoromethyl)phenyl)sulfonyl)-3,4-dihydro-2H-benzo[b][1,4]-oxazin-2-yl)-2,2-dimethyl-propanoic acid], the EC50 [1] is reported as under 500 nM, the “TR-FRET Assay Max Response” value [1] is reported as “*** (The symbol “***” indicates a value in the range of greater than 150 to 200)” and the EC50 ([2]; 2 μM ursolic acid) is reported as 500 to 5000 nM. The “Gal4-RORγ Assay Max Response” value ([2]; 2 μM ursolic acid) was “** (The symbol “**” indicates a value in the range of greater than 90 to 150)”.

In the case of `COc1cc(F)cc(-c2ccc3c(c2)N(S(=O)(=O)c2cccc(C(F)(F)F)c2)C[C@H](CC(C)(C)C(=O)O)O3)c1` [Compound 32AG, (S)-3-(6-(3-fluoro-5-methoxy-phenyl)-4-((3-(trifluoromethyl)-phenyl)sulfonyl)-3,4-dihydro-2H-benzo[b][1,4]oxazin-2-yl)-2,2-dimethylpropanoic acid], the EC50 [1] is reported as under 500 nM, the “TR-FRET Assay Max Response” value [1] is reported as “**** (The symbol “****” indicates a value greater than 200)” and the EC50 ([2]; 2 μM ursolic acid) is reported as under 500 nM. The “Gal4-RORγ Assay Max Response” value ([2]; 2 μM ursolic acid) was “** (The symbol “**” indicates a value in the range of greater than 90 to 150)”.

From patent publication US10611740B2, “Aryl dihydro-2H-benzo[b][1,4]oxazine sulfonamide and related compounds for use as agonists of RORγ and the treatment of disease” (Lycera Corporation, priority 2015, dated 2020)
